Patent US6235973A, “Expression of magainin and PGL classes of antimicrobial peptide genes in plants, and their use in creating resistance to multiple plant pathogens” (Sanford Scientific, Inc., priority 1998, dated 2001)
Where “and” joins values, the source holds several entries; their conditions need not be identical. Equal values may be shown once. Residues, ends and D or L forms follow the SMILES beside them.

Tests used:
Pseudomonas syringae = experiment: In vitro MIC, microtiter serial dilution; format: cell-based; conditions: inhibits all growth after 24 hrs
Thielaviopsis basicola = experiment: In vitro MIC, microtiter serial dilution; format: cell-based
Erwinia carotovora = experiment: In vitro MIC, microtiter serial dilution; format: cell-based; conditions: inhibits all growth after 24 hrs
Fusarium solani = experiment: In vitro MIC, microtiter serial dilution; format: cell-based
Botrytis cinerea [1] = experiment: In vitro MIC, microtiter serial dilution; format: cell-based
[2] = tested on: Pseudomonas syringae and Erwinia carotovora; conditions: for activity against log phase-grown Pseudomomas and Erwinia: compared with MSI-99 and D5-C
Fusarium graminearum = format: cell-based; conditions: non-germinated
[3] = tested on: Phytophthora parasitica (petunia); experiment: In vitro MIC, microtiter serial dilution; format: cell-based; conditions: germinated
Rhizoctonia solani R2 = conditions: Rhizoctonia solani R2, mycelial fragments
[4] = tested on: Phytophthora parasitica (vinca); experiment: In vitro MIC, microtiter serial dilution; format: cell-based
Botrytis cinerea [5] = experiment: Anti-Botrytis leaf disk bioassay, transgenic poinsettia; conditions: control = 100
Botrytis cinerea [6] = experiment: Anti-Botrytis leaf disk bioassay, transgenic petunia; conditions: control = 100
[7] = plasmid 144, three distinct plants
[8] = plasmid 143, three distinct plants

| Structure (SMILES) | Minimum Inhibitory Concentration (Pseudomonas syringae) | Minimum Inhibitory Concentration (Thielaviopsis basicola; germinated) | Minimum Inhibitory Concentration (Thielaviopsis basicola; non-germinated) | Minimum Inhibitory Concentration (Erwinia carotovora) | Minimum Inhibitory Concentration (Fusarium solani; germinated) | Minimum Inhibitory Concentration (Fusarium solani; non-germinated) | Minimum Inhibitory Concentration (Botrytis cinerea [1]; germinated) | Minimum Inhibitory Concentration (Botrytis cinerea [1]; non-germinated) | activity against log phase-grown Pseudomomas and Erwinia [2] | Minimum Inhibitory Concentration (Fusarium graminearum) | Minimum Inhibitory Concentration [3] | Minimum Inhibitory Concentration (Rhizoctonia solani R2) | Minimum Inhibitory Concentration ([4]; germinated) | Minimum Inhibitory Concentration ([4]; non-germinated) | MIC [2] | also measured |
| --- | --- | --- | --- | --- | --- | --- | --- | --- | --- | --- | --- | --- | --- | --- | --- | --- |
| CC[C@H](C)[C@H](NC(=O)[C@H](C)NC(=O)CNC(=O)[C@H](C)NC(=O)[C@H](CCCCN)NC(=O)[C@H](CO)NC(=O)[C@H](C)NC(=O)[C@H](CCSC)NC(=O)CN)C(=O)N[C@@H](C)C(=O)NCC(=O)N[C@@H](CCCCN)C(=O)N[C@H](C(=O)N[C@@H](C)C(=O)N[C@@H](CCCCN)C(=O)N[C@H](C(=O)N[C@@H](C)C(=O)N[C@@H](CC(C)C)C(=O)N[C@@H](CCCCN)C(=O)N[C@@H](C)C(=O)N[C@@H](CC(C)C)C(N)=O)C(C)C)[C@@H](C)CC [PGL] (H-GMASKAGAIAGKIAKVALKAL-NH2) | > 64 µg/mL | 4 µg/mL | 4 to 8 µg/mL | 32 µg/mL | 8 to 16 µg/mL | 4 µg/mL | 8 µg/mL | 4 to 8 µg/mL | significantly less active | 4 to 8 µg/mL | > 128 µg/mL | 16 to 32 µg/mL | > 128 µg/mL | > 256 µg/mL |  |  |
| CC[C@H](C)[C@H](NC(=O)[C@H](CCCCN)NC(=O)[C@H](CCCNC(=N)N)NC(=O)[C@H](C)NC(=O)[C@H](CC(C)C)NC(=O)[C@H](CCCCN)NC(=O)[C@H](CCCCN)NC(=O)[C@H](CC(C)C)NC(=O)[C@H](CCCNC(=N)N)NC(=O)[C@H](CCCNC(=N)N)NC(=O)CNC(=O)[C@@H](NC(=O)[C@H](CCCNC(=N)N)NC(=O)[C@H](CCCCN)NC(=O)[C@@H](NC(=O)[C@H](C)NC(=O)[C@H](CCCNC(=N)N)NC(=O)[C@H](CCCCN)NC(=O)[C@H](CCCNC(=N)N)NC(=O)[C@H](CCCCN)NC(=O)[C@@H](N)CCSC)C(C)C)C(C)C)C(=O)N[C@@H](C)C(=O)N[C@@H](CCCNC(=N)N)C(=O)N[C@@H](CC(C)C)C(=O)NCC(=O)N[C@H](C(=O)N[C@@H](C)C(=O)N[C@@H](Cc1ccccc1)C(=O)O)C(C)C [D5-C, reference compound] (H-MKRKRAVKRVGRRLKKLARKIARLGVAF-OH) |  | 16 µg/mL | 16 µg/mL | 2 µg/mL | 4 µg/mL | 4 µg/mL |  |  |  |  | 16 to 32 µg/mL | 32 to 64 µg/mL | 16 to 32 µg/mL | 16 µg/mL | < 2 µg/mL | Disease Incidence, percent leaf disks infected relative to untransformed control (Botrytis cinerea [5]; [7]): 62% and 68% and 72%; Disease Incidence, percent leaf disks infected relative to untransformed control (Botrytis cinerea [5]; plasmid 165, three distinct plants): 42% and 60% and 67%; Disease Incidence, percent leaf disks infected relative to untransformed control (Botrytis cinerea [6]; [7]): 31% and 41% and 50%; Disease Incidence, percent leaf disks infected relative to untransformed control (Botrytis cinerea [6]; plasmid 148, three distinct plants): 52% and 70% and 75% |
| CC[C@H](C)[C@H](NC(=O)CNC(=O)[C@@H](N)CCSC)C(=O)NCC(=O)N[C@@H](CCCCN)C(=O)N[C@@H](Cc1ccccc1)C(=O)N[C@@H](CC(C)C)C(=O)N[C@@H](Cc1c[nH]cn1)C(=O)N[C@@H](CO)C(=O)N[C@@H](C)C(=O)N[C@@H](CCCCN)C(=O)N[C@@H](CCCCN)C(=O)N[C@@H](Cc1ccccc1)C(=O)NCC(=O)N[C@@H](CCCCN)C(=O)N[C@@H](C)C(=O)N[C@@H](Cc1ccccc1)C(=O)N[C@H](C(=O)NCC(=O)N[C@@H](CCC(=O)O)C(=O)N[C@H](C(=O)N[C@@H](CCSC)C(=O)N[C@@H](CC(N)=O)C(=O)N[C@@H](CO)C(=O)O)[C@@H](C)CC)C(C)C [Mag 2] (H-MGIGKFLHSAKKFGKAFVGEIMNS-OH; N-terminus and C-terminus assumed) | 32 µg/mL | 4 µg/mL | 8 µg/mL | 32 µg/mL | 4 to 8 µg/mL | 4 µg/mL | 8 µg/mL | 8 to 16 µg/mL | significantly less active | 4 µg/mL | > 128 µg/mL | 16 to 32 µg/mL | > 128 µg/mL | > 256 µg/mL |  |  |
| CC[C@H](C)[C@H](NC(=O)CNC(=O)[C@@H](N)CCSC)C(=O)NCC(=O)N[C@@H](CCCCN)C(=O)N[C@@H](Cc1ccccc1)C(=O)N[C@@H](CC(C)C)C(=O)N[C@@H](CCCCN)C(=O)N[C@@H](CO)C(=O)N[C@@H](C)C(=O)N[C@@H](CCCCN)C(=O)N[C@@H](CCCCN)C(=O)N[C@@H](Cc1ccccc1)C(=O)NCC(=O)N[C@@H](CCCCN)C(=O)N[C@@H](C)C(=O)N[C@@H](Cc1ccccc1)C(=O)N[C@H](C(=O)N[C@@H](CCCCN)C(=O)N[C@H](C(=O)N[C@@H](CC(C)C)C(=O)N[C@@H](CC(N)=O)C(=O)N[C@@H](CO)C(=O)O)[C@@H](C)CC)C(C)C [MSI-99] (H-MGIGKFLKSAKKFGKAFVKILNS-OH; N-terminus and C-terminus assumed) | 1 µg/mL | 4 µg/mL | 4 µg/mL | 1 µg/mL | 4 µg/mL | 2 µg/mL | 8 µg/mL | 8 µg/mL |  | 4 µg/mL | 8 to 16 µg/mL | 16 µg/mL | 16 to 32 µg/mL | 64 µg/mL | < 2 µg/mL | Disease Incidence, percent leaf disks infected relative to untransformed control (Botrytis cinerea [5]; [8]): 48% and 61% and 69%; Disease Incidence, percent leaf disks infected relative to untransformed control (Botrytis cinerea [5]; plasmid 168, three distinct plants): 31% and 40% and 52%; Disease Incidence, percent leaf disks infected relative to untransformed control (Botrytis cinerea [6]; [8]): 26% and 30% and 31%; Disease Incidence, percent leaf disks infected relative to untransformed control (Botrytis cinerea [6]; plasmid 147, three distinct plants): 36% and 60% and 70% |
